Experimental data taken from patent EP3072514A1, “Novel oral anticoagulants (NOACs) for preventing development and aggravation of atrial fibrillation” (Université Pierre et Marie Curie - Paris 6 (UPMC), priority 2015, dated 2016).

What was measured:
Type in all cases: in vivo, Male OFA Sprague-dawley rats
[1] = tested on: α-MHC; test: mRNA expression by real-time qPCR in atria and ventricle of I/R rats
Text: (§1) • Figure 1 is a combination of two graphs showing left atrium (LA) area after one month of treatment with DTI Dabigatran (A) or S35792 (B). Vehicle (V) is 60% H2O/40% PEG 300 for dabigatran and saline for S35972. Treatment of rats started just after thoracotomy without (Sham) or with occlusion of left coronary artery followed by reperfusion (I/R). […] Vehicle (V) is 60% H2O/40% PEG 300 for dabigatran and saline for S35972. Treatment of rats started just after thoracotomy without (Sham) or with occlusion of left coronary artery followed by reperfusion (I/R). Results are presented as mean +/- S.E.M. * P<0.05; ** P<0.001, *** P<0.001 vs Sham; #P<0.05 vs untreated I/R. • Figure 3 is a combination of two graphs showing thrombin time (TT), which reflects anticoagulant activity, and plasma concentrations of Dabigatran (A) and S35792 (B) in rats after throracotomy with occlusion of left coronary artery followed by reperfusion (I/R). Vehicle (V) is 60% H2O/40% PEG 300 for dabigatran and saline for S35972. Tests were carried out on blood collected by cardiac puncture at sacrifice (i.e. for Dabigatran, 90 minutes after last oral administration). DTI plasma levels are quantified using LC-MS/MS. TT are expressed as mean +/- S.E.M with reference to the mean value of sham animals that underwent thoracotomy only. *** P<0.001 vs untreated I/R. • Figure 4 is a combination of three graphs showing left atrium (LA) area (A) and diameter (B) and left ventricle end-diastolic (LVED) diameter (C) after two months of treatment with S35972. Treatment of rats started just after thoracotomy without (Sham) or with occlusion of left coronary artery followed by reperfusion (I/R). LA area was measured by bidimensional echocardiography. LA and LVED diameters were measured in time-motion mode. Results are presented as mean +/- S.E.M. *P<0.05, **P<0.01 and *** P<0.001 vs Sham; ^#P<0.05 ^###P<0.001 vs untreated I/R. • Figure 5 is a graph showing the impact of S35972 administration during two months on the duration of an episode of AF in rats undergone thoracotomy without (Sham) or with occlusion of left coronary artery followed by reperfusion (I/R). AF duration is measured as the time between the end of the electric stimulation and the return to sinusoidal rhythm. […] Rats undergone thoracotomy without (Sham) or with occlusion of left coronary artery followed by reperfusion (I/R). Expression of mRNA was measured with real-time qPCR. […] Expression of mRNA was measured with real-time qPCR. […] Expression of mRNA was measured with real-time qPCR. […] LA area was measured by bidimensional echocardiography. LVED and LA diameters were measured in time-motion mode. […] AF duration is measured as the time between the end of the electric stimulation and return to sinusoidal rhythm. […]

[2] = tested on: β-MHC; test: as above
Text: as §1

[3] = tested on: rats with occlusion of left coronary artery followed by reperfusion (I/R); test: Echocardiographic evaluation of left atrium and left ventricle in rats after ischemia/reperfusion (I/R)
Text: • Figure 1 is a combination of two graphs showing left atrium (LA) area after one month of treatment with DTI Dabigatran (A) or S35792 (B). Vehicle (V) is 60% H2O/40% PEG 300 for dabigatran and saline for S35972. Treatment of rats started just after thoracotomy without (Sham) or with occlusion of left coronary artery followed by reperfusion (I/R). […] Vehicle (V) is 60% H2O/40% PEG 300 for dabigatran and saline for S35972. Treatment of rats started just after thoracotomy without (Sham) or with occlusion of left coronary artery followed by reperfusion (I/R). Results are presented as mean +/- S.E.M. * P<0.05; ** P<0.001, *** P<0.001 vs Sham; #P<0.05 vs untreated I/R. • Figure 3 is a combination of two graphs showing thrombin time (TT), which reflects anticoagulant activity, and plasma concentrations of Dabigatran (A) and S35792 (B) in rats after throracotomy with occlusion of left coronary artery followed by reperfusion (I/R). Vehicle (V) is 60% H2O/40% PEG 300 for dabigatran and saline for S35972. Tests were carried out on blood collected by cardiac puncture at sacrifice (i.e. for Dabigatran, 90 minutes after last oral administration). DTI plasma levels are quantified using LC-MS/MS. TT are expressed as mean +/- S.E.M with reference to the mean value of sham animals that underwent thoracotomy only. *** P<0.001 vs untreated I/R. • Figure 4 is a combination of three graphs showing left atrium (LA) area (A) and diameter (B) and left ventricle end-diastolic (LVED) diameter (C) after two months of treatment with S35972. Treatment of rats started just after thoracotomy without (Sham) or with occlusion of left coronary artery followed by reperfusion (I/R). LA area was measured by bidimensional echocardiography. LA and LVED diameters were measured in time-motion mode. Results are presented as mean +/- S.E.M. *P<0.05, **P<0.01 and *** P<0.001 vs Sham; ^#P<0.05 ^###P<0.001 vs untreated I/R. • Figure 5 is a graph showing the impact of S35972 administration during two months on the duration of an episode of AF in rats undergone thoracotomy without (Sham) or with occlusion of left coronary artery followed by reperfusion (I/R). AF duration is measured as the time between the end of the electric stimulation and the return to sinusoidal rhythm. […] Rats undergone thoracotomy without (Sham) or with occlusion of left coronary artery followed by reperfusion (I/R). Expression of mRNA was measured with real-time qPCR. […] Treatment of rats started one month post thoracotomy without (Sham) or with occlusion of left coronary artery followed by reperfusion (I/R). LA area was measured by bidimensional echocardiography. LVED and LA diameters were measured in time-motion mode. […] Rats undergone thoracotomy without (Sham) or with occlusion of left coronary artery followed by reperfusion (I/R). AF duration is measured as the time between the end of the electric stimulation and return to sinusoidal rhythm. Results are presented as mean +/- S.E.M.
Animals were anesthetized with 30 mg/kg sodium pentobarbital, and then intubated and ventilated at 60 respirations/min while body temperature was maintained at 37°C. Rats underwent thoracotomy and their left coronary artery was either left intact (Sham) or occluded with a 4.0 silk suture at 1 mm from the artery origin. Ischemia was maintained for 30 min and the clamp was removed to initiate a definitive reperfusion phase. […]

[4] = atrium, 6 mg/kg/day for 8 weeks post I/R
[5] = ventricle, 6 mg/kg/day post I/R
[6] = 6 mg/kg/d during one month, treatment started one month after the I/R episode
[7] = 6 mg/kg/day for 8 weeks, started just after I/R
[8] = four weeks post-I/R, one month of treatment started just after I/R

4-oxo-3-(2-pyridin-2-ylethylamino)-4,6,7,8-tetrahydro-pyrrolo[1,2-a]pyrazine-6-carboxylic acid 2-ethylcarbamoyl methoxy-benzylamide [S35972]
expression of α-MHC (mRNA) in left atrium [1, 4]: without impacting the expression of α-MHC
expression of α-MHC (mRNA) in the ventricle [1, 5]: without significant impact on the expression of α-MHC
synthesis of β-MHC (mRNA) in left atrium [2, 4]: prevents the synthesis of β-MHC
synthesis of β-MHC (mRNA) in the ventricle [2, 5]: prevents the synthesis of β-MHC
left atrium area ([3]; 3 mg/kg/day for 8 weeks, started just after I/R): decreases the left atrium area
left atrium diameter [3, 6]: decreased to an intermediate value between Sham and I/R rats
left ventricle end-diastolic diameter [3, 6]: had no effect
left atrium area ([3]; 6 mg/kg/d during one month, treatment started one month after the I/R episode (established atrial dilatation)): significantly reduced
atrial diameter [3, 7]: significantly reduces
left atrium area [3, 7]: decreases the left atrium area
ventricular diameter (LVED diameter) [3, 7]: significantly reduces
dilatation of left atrium (left atrium (LA) area) [3, 8]: prevent the dilatation of left atrium
ventricular diameter (LVED diameter) [3, 8]: do not impact
ventricular function (fractional shortening) [3, 8]: do not impact
